Experimental data published in publication PMC9146896, “Uracil as a Zn-Binding Bioisostere of the Allergic Benzenesulfonamide in the Design of Quinoline–Uracil Hybrids as Anticancer Carbonic Anhydrase Inhibitors” (Pharmaceuticals, 2022).

Tests used:
hCA I = hCA I (Homo sapiens, UniProt P00915); assay: Carbonic anhydrase inhibition, colorimetric method (BioVision CA Inhibitor Screening Kit)
hCA II = hCA II (Homo sapiens, UniProt P00918); assay: as above
hCA XII = hCA XII (Homo sapiens, UniProt O43570); assay: Carbonic anhydrase inhibition, colorimetric method (BioVision CA Inhibitor Screening Kit); conditions: for Selectivity index I/XII: hCA XII over hCA I; for Selectivity index II/XII: hCA XII over hCA II
hCA XII, sequence (O43570 25-354): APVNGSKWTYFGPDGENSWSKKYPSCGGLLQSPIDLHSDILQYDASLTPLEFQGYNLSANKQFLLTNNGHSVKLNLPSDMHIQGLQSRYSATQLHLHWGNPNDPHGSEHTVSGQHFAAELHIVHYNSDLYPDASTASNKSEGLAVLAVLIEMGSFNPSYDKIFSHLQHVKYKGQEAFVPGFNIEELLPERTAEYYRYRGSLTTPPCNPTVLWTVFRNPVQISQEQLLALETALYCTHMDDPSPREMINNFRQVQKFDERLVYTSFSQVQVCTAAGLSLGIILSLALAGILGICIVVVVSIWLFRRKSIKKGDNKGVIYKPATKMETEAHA

hCA IX = hCA IX (Homo sapiens, UniProt Q16790); assay: as above; conditions: for Selectivity index I/IX: hCA IX over hCA I; for Selectivity index II/IX: hCA IX over hCA II
Bax [1] = assay: Assessment of apoptotic marker levels: Bax in MCF-7; format: cell-based
From the text: (§1) The two cytoplasmic proteins, B-cell lymphoma protein 2 (Bcl-2) and its associated X protein (Bax), are essential for apoptosis in normal cells. Bax is a promoter and Bcl-2 is an inhibitor of apoptosis. Thus, the effect of 10d and 10l on apoptotic markers Bax and Bcl-2 in a breast cancer cell line (MCF-7) and a lung cancer cell line (A549) has been estimated.

[2] = tested on: breast cancer cell line (MCF-7); assay: Antiproliferative activity, MTT assay under hypoxic conditions; conditions: Homo sapiens, MCF7, read-out: Cytotoxicity IC50 MCF7
Bcl-2 [3] = assay: Assessment of apoptotic marker levels: Bcl-2 in MCF-7; format: cell-based
From the text: as §1

Bax [4] = assay: Assessment of apoptotic marker levels: Bax in A549; format: cell-based
From the text: as §1

[5] = tested on: lung cancer cell line (A549); assay: Antiproliferative activity, MTT assay under hypoxic conditions; format: cell-based; conditions: Homo sapiens, read-out: Cytotoxicity IC50 A549
Bcl-2 [6] = assay: Assessment of apoptotic marker levels: Bcl-2 in A549; format: cell-based
From the text: as §1

hCA I, sequence (P00915 whole entry): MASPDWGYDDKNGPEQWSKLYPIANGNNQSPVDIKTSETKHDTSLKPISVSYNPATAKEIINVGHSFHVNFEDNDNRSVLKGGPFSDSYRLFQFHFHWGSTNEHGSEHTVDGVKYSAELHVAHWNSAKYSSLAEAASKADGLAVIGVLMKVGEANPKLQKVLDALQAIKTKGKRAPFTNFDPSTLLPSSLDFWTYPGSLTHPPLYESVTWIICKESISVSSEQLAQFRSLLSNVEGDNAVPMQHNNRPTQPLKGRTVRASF

IC50 (hCA I) [nM]	Ki (hCA I) [nM]	IC50 (hCA II) [nM]	Ki (hCA II) [nM]	melting point [°C]	IC50 (hCA XII) [nM]	Ki (hCA XII) [nM]	Selectivity index I/XII (hCA XII)	Selectivity index II/XII (hCA XII)	IC50 (hCA IX) [nM]	Ki (hCA IX) [nM]	Selectivity index I/IX (hCA IX)	Selectivity index II/IX (hCA IX)	SMILES	other results
970	530	520	290	270 to 272	320	170	3.05	1.65	250	140	3.88	2.09	Nc1[nH]c(=O)[nH]c(=O)c1/N=C/c1cc2ccccc2[nH]c1=O [Compound 10a, (E)-6-Amino-5-(((2-oxo-1,2-dihydroquinolin-3-yl)methylene)amino)pyrimidine-2,4(1H,3H)-dione]	
1010	560	1140	630	280 to 282	350	190	2.88	3.24	630	350	1.60	1.81	Nc1c(/N=C/c2cc3ccccc3[nH]c2=O)c(=O)[nH]c(=O)n1Cc1ccccc1 [Compound 10b, (E)-6-Amino-1-benzyl-5-(((2-oxo-1,2-dihydroquinolin-3-yl)methylene)amino) pyrimidine-2,4(1H,3H)-dione]	
1760	970	660	370	290 to 292	490	270	3.62	1.37	400	220	4.37	1.65	CCn1c(N)c(/N=C/c2cc3ccccc3[nH]c2=O)c(=O)[nH]c1=O [Compound 10c, (E)-6-Amino-1-ethyl-5-(((2-oxo-1,2-dihydroquinolin-3-yl)methylene)amino)pyrimidine-2,4(1H,3H)-dione]	
230	130	260	140	298 to 300	190	110	1.24	1.37	220	120	1.09	1.21	Cn1c(N)c(/N=C/c2cc3ccccc3[nH]c2=O)c(=O)[nH]c1=O [Compound 10d, (E)-6-Amino-1-methyl-5-(((2-oxo-1,2-dihydroquinolin-3-yl)methylene)amino) pyrimidine-2,4(1H,3H)-dione]	Bax (Bax [1]): 403.1 ± 4.69 pg/mL; Bax level relative to the control (Bax [1]): nearly six-fold; IC50 [2]: 2870 ± 50 nM; Bcl2 (Bcl-2 [3]): 2.587 ± 0.03 nm/mL; Bcl-2 level in comparison with the control (Bcl-2 [3]): downregulated; Bax (Bax [4]): 278.6 ± 9.14 pg/mL; Bax level relative to the control (Bax [4]): nearly six-fold; IC50 [5]: 11800 ± 220 nM; Bcl2 (Bcl-2 [6]): 2.841 ± 0.01 nm/mL; Bcl-2 level in comparison with the control (Bcl-2 [6]): downregulated
1250	690	1210	670	284 to 286	590	330	2.12	2.06	1370	760	0.91	0.88	Cn1c(N)c(/N=C/c2cc3ccccc3[nH]c2=O)c(=O)[nH]c1=S [Compound 10e, (E)-3-(((6-Amino-1-methyl-4-Oxo-2-thioxo-1,2,3,4-tetrahydropyrimidin-5-yl)imino)methyl) quinolin-2(1H)-one]	
330	180	790	440	278 to 280	170	90	1.95	4.72	270	140	1.23	2.99	CCn1c(N)c(/N=C/c2cc3cccc(C)c3[nH]c2=O)c(=O)[nH]c1=O [Compound 10f, (E)-6-Amino-1-ethyl-5-(((8-methyl-2-oxo-1,2-dihydroquinolin-3-yl)methylene)amino)pyrimidine-2,4(1H,3H)-dione]	
2160	1200	3360	1860	265 to 267	330	180	6.47	10.05	1080	600	1.99	3.10	Cc1cccc2cc(/C=N/c3c(N)n(C)c(=S)[nH]c3=O)c(=O)[nH]c12 [Compound 10g, (E)-3-(((6-Amino-1-methyl-4-oxo-2-thioxo-1,2,3,4-tetrahydropyrimidin-5-yl)imino)methyl)-8-methylquinolin-2(1H)-one]	
3230	1780	4500	2490	275 to 277	400	220	8.00	11.16	600	330	5.39	7.52	COc1ccc2[nH]c(=O)c(/C=N/c3c(N)[nH]c(=O)[nH]c3=O)cc2c1 [Compound 10h, (E)-6-Amino-5-(((6-methoxy-2-oxo-1,2-dihydroquinolin-3-yl)methylene)amino) pyrimidine-2,4(1H,3H)-dione]	
2110	1170	1070	590	291 to 293	230	130	9.07	4.60	910	510	2.31	1.17	COc1ccc2[nH]c(=O)c(/C=N/c3c(N)n(Cc4ccccc4)c(=O)[nH]c3=O)cc2c1 [Compound 10i, (E)-6-Amino-1-benzyl-5-(((6-methoxy-2-oxo-1,2-dihydroquinolin-3-yl)methylene)amino) pyrimidine-2,4(1H,3H)-dione]	
890	490	2600	1440	287 to 289	620	340	1.43	4.18	870	480	1.02	2.98	CCn1c(N)c(/N=C/c2cc3cc(OC)ccc3[nH]c2=O)c(=O)[nH]c1=O [Compound 10j, (E)-6-Amino-1-ethyl-5-(((6-methoxy-2-oxo-1,2-dihydroquinolin-3-yl)methylene)amino)pyrimidine-2,4(1H,3H)-dione]	
2120	1170	6570	3630	293 to 295	540	300	3.96	12.26	1280	710	1.66	5.14	COc1ccc2[nH]c(=O)c(/C=N/c3c(N)n(C)c(=O)[nH]c3=O)cc2c1 [Compound 10k, (E)-6-Amino-5-(((6-methoxy-2-oxo-1,2-dihydroquinolin-3-yl)methylene)amino)-1-methyl pyrimidine-2,4(1H,3H)-dione]	
250	140	1880	1040	295 to 297	190	110	1.29	9.75	140	80	1.75	13.20	COc1ccc2[nH]c(=O)c(/C=N/c3c(N)n(C)c(=S)[nH]c3=O)cc2c1 [Compound 10l, (E)-3-(((6-Amino-1-methyl-4-oxo-2-thioxo-1,2,3,4-tetrahydropyrimidin-5-yl)imino)methyl)-6-methoxyquinolin-2(1H)-one]	Bax (Bax [1]): 337.2 ± 7.55 pg/mL; Bax level relative to the control (Bax [1]): nearly six-fold; IC50 [2]: 4080 ± 80 nM; Bcl2 (Bcl-2 [3]): 3.296 ± 0.09 nm/mL; Bcl-2 level in comparison with the control (Bcl-2 [3]): downregulated; Bax (Bax [4]): 208.4 ± 4.07 pg/mL; Bax level relative to the control (Bax [4]): nearly six-fold; IC50 [5]: 26100 ± 560 nM; Bcl2 (Bcl-2 [6]): 4.605 ± 0.28 nm/mL; Bcl-2 level in comparison with the control (Bcl-2 [6]): downregulated
													CN[C@@H]1C[C@H]2O[C@@](C)([C@@H]1OC)n1c3ccccc3c3c4c(c5c6ccccc6n2c5c31)C(=O)NC4 [Staurosporine, staurosporine, reference compound]	Bax (Bax [1]): 381.8 ± 11.4 pg/mL; IC50 [2]: 6920 ± 180 nM; Bcl2 (Bcl-2 [3]): 2.829 ± 0.07 nm/mL; Bax (Bax [4]): 310.5 ± 9.7 pg/mL; Bcl2 (Bcl-2 [6]): 3.78 ± 0.14 nm/mL
